Measurements: PubChem BioAssay (NCI)
Where “and” joins values, the source holds several entries; their conditions need not be identical. Equal values may be shown once.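 Step 1: Grow cells in 96-well plates. Step 2: Expose to compound for 48 hours at 5 concentrations. Step 3: Interpolate endpoints linearly; if unreached, use highest concentration. Abbreviation: GI50, concentration required for 50% inhibition of growth. TGI denotes the concentration required for complete inhibition of growth.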

How the values were obtained:
Experiment in all cases: growth of human tumour cells (NCI), 48 h
COLO 205 colon = test system: COLO 205 colon
HL-60(TB) leukemia = test system: HL-60(TB) leukemia
HOP-62 NSCLC = test system: HOP-62 NSCLC
UACC-62 melanoma = test system: UACC-62 melanoma
K-562 leukemia = test system: K-562 leukemia
BT-549 breast = test system: BT-549 breast
ACHN renal = test system: ACHN renal
SNB-19 CNS = test system: SNB-19 CNS
SK-MEL-2 melanoma = test system: SK-MEL-2 melanoma
SR leukemia = test system: SR leukemia

SMILES | TGI (COLO 205 colon) | TGI (HL-60(TB) leukemia) | TGI (HOP-62 NSCLC) | TGI (UACC-62 melanoma) | TGI (K-562 leukemia) | TGI (BT-549 breast) | TGI (ACHN renal) | TGI (SNB-19 CNS) | TGI (SK-MEL-2 melanoma) | TGI (SR leukemia) | GI50 (HL-60(TB) leukemia) | GI50 (HOP-62 NSCLC) | GI50 (K-562 leukemia) | GI50 (SR leukemia) | GI50 (ACHN renal) | GI50 (SK-MEL-2 melanoma) | GI50 (COLO 205 colon) | GI50 (UACC-62 melanoma) | GI50 (SNB-19 CNS) | GI50 (BT-549 breast)
OC(c1ccc(Br)cc1)(c1cccs1)C1CC1 (stereo not given) | 36.6 µM | 52.7 µM | 47.2 µM | 33.3 µM | > 100 µM | 58.2 µM | 76.3 µM | > 100 µM | 40.4 µM |  |  |  |  |  |  |  |  |  |  | 
CC1(Cc2ccccc2)NC(=S)NC1=O (stereo not given) | > 100 µM | > 100 µM | > 100 µM |  |  |  | > 100 µM | > 100 µM | > 100 µM | > 100 µM |  |  |  |  |  |  |  |  |  | 
CC(=O)OC1COC(n2c(=S)n(-c3ccccc3)c(=O)c3cc(Br)ccc32)C(OC(C)=O)C1OC(C)=O (stereo not given) | > 100 µM | > 100 µM | 47.5 µM | > 100 µM | > 100 µM |  | > 100 µM | 77.3 µM | > 100 µM |  |  |  |  |  |  |  |  |  |  | 
COc1c(Br)cc(Br)c(OC)c1-c1[nH]c(Br)c(Br)c1Br | 28 µM | 25.1 µM | 21.3 µM | 22.4 µM | 15 µM |  | 17.1 µM | > 100 µM | 13.7 µM |  |  |  |  |  |  |  |  |  |  | 
O=c1ncccn1C1C=C(CO)C(O)C1O (stereo not given) | > 50 µM | > 50 µM | > 50 µM |  | > 50 µM |  | > 50 µM | > 50 µM | > 50 µM |  |  |  |  |  |  |  |  |  |  | 
CCOC(=O)C(=O)Nc1ccccc1C(F)(F)F | > 100 µM |  | > 100 µM | > 100 µM |  |  | > 100 µM | > 100 µM | > 100 µM | > 100 µM |  |  |  |  |  |  |  |  |  | 
O=c1c(Cl)c(Cl)cnn1CCc1ccncc1 |  | 87.1 µM | 33.9 µM | 39.8 µM | > 100 µM |  | 33.4 µM | 30.7 µM | 39.7 µM | 57.2 µM |  |  |  |  |  |  |  |  |  | 
CC/C(=N\NS(=O)(=O)c1ccccc1)c1ccccc1 | > 100 µM | > 100 µM | > 100 µM | > 100 µM | > 100 µM |  | > 100 µM |  | > 100 µM | > 100 µM |  |  |  |  |  |  |  |  |  | 
C[n+]1c2ccccc2cc2c(CNC(CCCN=C(N)N)C(=O)O)cccc21 (stereo not given) | 0.686 µM | 0.488 µM and 0.882 µM | 6.88 µM and 22 µM | 2.32 µM | 1.09 µM and 7.63 µM |  | 1.83 µM and 2.05 µM |  | 7.25 µM | 0.468 µM and 0.582 µM | 0.187 µM | 9.22 µM | 0.485 µM | 0.22 µM | 0.486 µM | 0.957 µM |  |  |  | 
CCN(CC)CC(=O)N1CCc2c([nH]c3ccccc23)C1c1cccnc1 (stereo not given) |  | > 100 µM | > 100 µM | > 100 µM | > 100 µM |  | > 100 µM | > 100 µM |  |  |  |  |  |  |  |  |  |  |  | 
CC(=O)[CH-]C(C)=O.[CH2-]C.[CH2-]C.[Tl+3] | > 100 µM | > 100 µM | > 100 µM | > 100 µM | > 100 µM |  | > 100 µM | > 100 µM | > 100 µM | > 100 µM | > 100 µM | > 100 µM | > 100 µM | > 100 µM | > 100 µM | > 100 µM | > 100 µM | > 100 µM | > 100 µM | 
CNC(SC)=C1C(=O)OC(C)(C)OC1=O | > 100 µM | > 100 µM | > 100 µM | > 100 µM | > 100 µM |  | > 100 µM | > 100 µM | > 100 µM | > 100 µM |  |  |  |  |  |  |  |  |  | 
C#CCC(N)(CO)C(=O)O (stereo not given) | > 100 µM | > 100 µM | > 100 µM | > 100 µM | > 100 µM |  | > 100 µM | > 100 µM | > 100 µM | > 100 µM |  |  |  |  |  |  |  |  |  | 
CC(=O)[O-].CC(=O)[O-].CC(=O)[O-].CC(=O)[O-].[Mo+2].[Mo+2] | > 100 µM | > 100 µM | > 100 µM | > 100 µM | > 100 µM |  | > 100 µM | > 100 µM | > 100 µM |  | > 100 µM | > 100 µM | > 100 µM |  | > 100 µM | > 100 µM | > 100 µM | > 100 µM | > 100 µM | 
NC(=O)/C=C/C(=O)O | > 5000 µM | > 5000 µM | > 5000 µM | > 5000 µM | > 5000 µM |  | > 5000 µM |  | > 5000 µM | > 5000 µM |  |  |  |  |  |  |  |  |  | 
CC1(C)OC2COC3(CNO)OC(C)(C)OC3C2O1 (stereo not given) | > 100 µM | 30.2 µM | > 100 µM | > 100 µM | > 100 µM |  | > 100 µM | > 100 µM | > 100 µM |  |  |  |  |  |  |  |  |  |  | 
C=CCC1[C@@H](C(C)(C)C(C(C)=O)C(=O)C(=O)OC)OC(C(C)(C)C)N1C(=O)OC (stereo not given in full) | > 100 µM |  | > 100 µM | > 100 µM | > 100 µM |  | > 100 µM | > 100 µM | > 100 µM |  |  |  |  |  |  |  |  |  |  | 
COc1cc2cnc3c4ccccc4ccc3c2cc1OC | > 100 µM |  | > 100 µM | > 100 µM | > 100 µM |  | > 100 µM | > 100 µM | > 100 µM |  |  |  |  |  |  |  |  |  |  | 
O=C/C(=C(/Cl)c1ccc(O)cc1)c1ccccc1 | 46.9 µM | > 100 µM |  | 22 µM | > 100 µM |  | 50.2 µM | > 100 µM | 81.6 µM | > 100 µM |  |  |  |  |  |  |  |  |  | 
CC(=O)N[C@H](C(=O)N[C@@H](CCCNC(=N)N)C(=O)N[C@@H](CCCCN)C(=O)N[C@@H](CCCNC(=N)N)C(=O)N[C@]1(C)CCCCCC/C=C\CCC[C@@](C)(C(=O)N[C@@H](CCCNC(=N)N)C(=O)N[C@@H](CCC(=O)O)C(=O)N[C@@H](CC(C)C)C(=O)N[C@H](C(=O)N[C@@H](CCC(=O)O)C(N)=O)C(C)C)NC(=O)[C@H](CCC(N)=O)NC(=O)[C@H](CC(C)C)NC(=O)[C@H](CC(C)C)NC(=O)[C@H](CCCNC(=N)N)NC(=O)[C@H](CCCNC(=N)N)NC(=O)[C@H](CC(C)C)NC1=O)C(C)C | 4.54 µM | 18.5 µM | 22.5 µM |  | 21.6 µM | 4.35 µM | 28.1 µM | > 50 µM | > 50 µM |  | 5.19 µM | 2.35 µM | 5.42 µM |  | 8.06 µM | 7.59 µM | 1.3 µM |  | 10.3 µM | 1.44 µM
CSc1c(C)c(C)nn1-c1ccccc1 | > 100 µM | > 100 µM |  | > 100 µM | > 100 µM |  | > 100 µM | > 100 µM | > 100 µM |  |  |  |  |  |  |  |  |  |  | 
